Reference: PubChem BioAssay AID248 (DTP/NCI, 2004)
Values joined by “and” are separate entries in the source; they are usually repeats but may differ in a detail not shown here. Identical values can stand only once. Inconclusive results and toxic doses are left out. Rule as the data show it: active = T/C of 150% or more; inactive = T/C below 125%.

Tested on: L1210 leukemia ip in BDF1 mice, survival T/C
Test: NCI In Vivo Anticancer Drug Screen. Data for tumor model L1210 Leukemia (intraperitoneal) in B6D2F1 (BDF1) mice
Details: endpoint: mean survival time, higher = longer survival
Procedure, shortened: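 Each compound was tested against a transplantable tumor grown in mice. The endpoint was survival, with treated animals benchmarked against vehicle controls as a simple ratio.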

[1] = dose: 100.0 mg/kg/injection, schedule: Q01DX009 (ip), vehicle: saline
[2] = dose: 200.0 mg/kg/injection, schedule: Q01DX009 (ip), vehicle: saline
[3] = dose: 400.0 mg/kg/injection, schedule: Q01DX009 (ip), vehicle: saline
[4] = dose: 100.0 mg/kg/injection, schedule: Q01DX001 (ip), vehicle: Klucel (hydroxypropylcellulose) (HPC)
[5] = dose: 200.0 mg/kg/injection, schedule: Q01DX001 (ip), vehicle: Klucel (hydroxypropylcellulose) (HPC)
[6] = dose: 400.0 mg/kg/injection, schedule: Q01DX001 (ip), vehicle: Klucel (hydroxypropylcellulose) (HPC)
[7] = dose: 100.0 mg/kg/injection, schedule: Q04DX003 (ip), vehicle: saline
[8] = dose: 200.0 mg/kg/injection, schedule: Q04DX003 (ip), vehicle: saline
[9] = dose: 400.0 mg/kg/injection, schedule: Q04DX003 (ip), vehicle: saline
[10] = dose: 50.0 mg/kg/injection, schedule: Q01DX001 (ip), vehicle: carboxymethylcellulose (CMC)
[11] = dose: 100.0 mg/kg/injection, schedule: Q01DX001 (ip), vehicle: carboxymethylcellulose (CMC)
[12] = dose: 200.0 mg/kg/injection, schedule: Q01DX001 (ip), vehicle: carboxymethylcellulose (CMC)
[13] = dose: 400.0 mg/kg/injection, schedule: Q01DX001 (ip), vehicle: carboxymethylcellulose (CMC)
[14] = dose: 100.0 mg/kg/injection, schedule: Q04DX003 (ip), vehicle: Klucel (hydroxypropylcellulose) (HPC)
[15] = dose: 200.0 mg/kg/injection, schedule: Q04DX003 (ip), vehicle: Klucel (hydroxypropylcellulose) (HPC)

Measured: T/C

CS(=N)(=O)CC(N)C(=O)O (stereo not drawn)
inactive: [1] 95 % of control | [2] 114 % of control | [3] 95 % of control

C1CCC(CC2CCNCC2)CC1
inactive: dose: 12.5 mg/kg/injection, schedule: Q04DX003 (ip), vehicle: saline with Tween-80 105 % of control | dose: 25.0 mg/kg/injection, schedule: Q04DX003 (ip), vehicle: saline with Tween-80 96 % of control | dose: 50.0 mg/kg/injection, schedule: Q04DX003 (ip), vehicle: saline with Tween-80 102 % of control

C=C(C)CNC(N)=S
inactive: dose: 75.0 mg/kg/injection, schedule: Q04DX003 (ip), vehicle: Klucel (hydroxypropylcellulose) (HPC) 98 % of control | [4] 105 % of control | dose: 150.0 mg/kg/injection, schedule: Q04DX003 (ip), vehicle: Klucel (hydroxypropylcellulose) (HPC) 89 % of control | [5] 98 % of control | dose: 300.0 mg/kg/injection, schedule: Q04DX003 (ip), vehicle: Klucel (hydroxypropylcellulose) (HPC) 110 % of control | [6] 105 % of control

CCCCNC=O
inactive: [1] 101 % of control | [7] 102 % of control | [2] 106 % of control | [8] 93 % of control | [3] 108 % of control | [9] 111 % of control

CCCCCCCCCCCCCCBr
inactive: dose: 37.5 mg/kg/injection, schedule: Q01DX Z (ip), vehicle: carboxymethylcellulose (CMC) 100 % of control | dose: 75.0 mg/kg/injection, schedule: Q01DX Z (ip), vehicle: carboxymethylcellulose (CMC) 100 % of control | [4] 107 % of control | dose: 150.0 mg/kg/injection, schedule: Q01DX Z (ip), vehicle: carboxymethylcellulose (CMC) 100 % of control | [5] 98 % of control | dose: 300.0 mg/kg/injection, schedule: Q01DX Z (ip), vehicle: carboxymethylcellulose (CMC) 91 % of control | [6] 94 % of control

C=CCc1ccccc1OCC(=O)O
inactive: dose: 100.0 mg/kg/injection, schedule: Q04DX002 (ip), vehicle: Klucel (hydroxypropylcellulose) (HPC) 91 % of control | dose: 200.0 mg/kg/injection, schedule: Q04DX002 (ip), vehicle: Klucel (hydroxypropylcellulose) (HPC) 95 % of control | dose: 400.0 mg/kg/injection, schedule: Q04DX002 (ip), vehicle: Klucel (hydroxypropylcellulose) (HPC) 104 % of control

Cc1ccc(NC(=O)NCCBr)cc1
inactive: [10] 101 % of control | [11] 101 % of control | [12] 106 % of control | [13] 98 % of control

Oc1ccc(Cl)cc1Sc1cc(Cl)ccc1O
inactive: dose: 25.0 mg/kg/injection, schedule: Q04DX003 (ip), vehicle: other 103 % of control | dose: 50.0 mg/kg/injection, schedule: Q01DX009 (ip), vehicle: other 95 % of control | dose: 50.0 mg/kg/injection, schedule: Q04DX003 (ip), vehicle: other 97 % of control | dose: 100.0 mg/kg/injection, schedule: Q01DX009 (ip), vehicle: other 111 % of control | dose: 100.0 mg/kg/injection, schedule: Q04DX003 (ip), vehicle: other 92 % of control | [7] 86 % of control | dose: 200.0 mg/kg/injection, schedule: Q01DX009 (ip), vehicle: other 95 % of control

Cc1ccc(S(=O)(=O)N(C)Cc2ccccc2)cc1
inactive: dose: 100.0 mg/kg/injection, schedule: Q04DX003 (ip), vehicle: saline with Tween-80 95 % of control | dose: 200.0 mg/kg/injection, schedule: Q04DX003 (ip), vehicle: saline with Tween-80 101 % of control | dose: 400.0 mg/kg/injection, schedule: Q04DX003 (ip), vehicle: saline with Tween-80 101 % of control

O=C(O)/C=C/c1ccccn1
inactive: dose: 20.0 mg/kg/injection, schedule: Q04DX003 (ip), vehicle: Klucel (hydroxypropylcellulose) (HPC) 102 % of control | dose: 40.0 mg/kg/injection, schedule: Q04DX003 (ip), vehicle: Klucel (hydroxypropylcellulose) (HPC) 100 % of control | dose: 80.0 mg/kg/injection, schedule: Q04DX003 (ip), vehicle: Klucel (hydroxypropylcellulose) (HPC) 94 % of control | [14] 93 % of control | [15] 100 % of control

Nc1ncnc2c1ncn2CCCNC(=O)c1cc([N+](=O)[O-])cc([N+](=O)[O-])c1
inactive: [1] 103 % of control | [2] 96 % of control | [3] 90 % of control

C=C(CC)C(=O)OCC
inactive: [7] 105 % of control | [8] 94 % of control | [9] 96 % of control

CCCC(=O)CCNC
inactive: dose: 100.0 mg/kg/injection, schedule: Q01DX001 (ip), vehicle: saline 103 % of control | dose: 200.0 mg/kg/injection, schedule: Q01DX001 (ip), vehicle: saline 94 % of control | dose: 400.0 mg/kg/injection, schedule: Q01DX001 (ip), vehicle: saline 111 % of control

NC(Cc1cc(Cl)c(O)c(Cl)c1)C(=O)O (stereo not drawn)
inactive: [1] 103 % of control | dose: 150.0 mg/kg/injection, schedule: Q01DX009 (ip), vehicle: saline 108 % of control | [2] 103 % of control

O=C(CC(C(=O)c1ccccc1)N1CCN(Cc2ccccc2)CC1)c1ccccc1 (stereo not drawn)
inactive: [10] 92 % of control | [11] 94 % of control | [12] 92 % of control | [13] 97 % of control

CCN(CC)C(C)CNc1cc(C)nc(/N=C(\N)Nc2ccc(Cl)c(Cl)c2)n1 (stereo not drawn)
inactive: dose: 2.35 mg/kg/injection, schedule: Q01DX009 (ip), vehicle: Klucel (hydroxypropylcellulose) (HPC) 110 % of control | dose: 4.69 mg/kg/injection, schedule: Q01DX009 (ip), vehicle: Klucel (hydroxypropylcellulose) (HPC) 100 % of control | dose: 9.38 mg/kg/injection, schedule: Q01DX009 (ip), vehicle: Klucel (hydroxypropylcellulose) (HPC) 98 % of control and 100 % of control | dose: 37.5 mg/kg/injection, schedule: Q01DX009 (ip), vehicle: Klucel (hydroxypropylcellulose) (HPC) 100 % of control | dose: 75.0 mg/kg/injection, schedule: Q01DX001 (ip), vehicle: other 97 % of control

CC(C)(C)N1OC1c1cccc(Cl)c1 (stereo not drawn)
inactive: dose: 100.0 mg/kg/injection, schedule: Q01DX001 (ip), vehicle: other 95 % of control | [14] 98 % of control | dose: 200.0 mg/kg/injection, schedule: Q01DX001 (ip), vehicle: other 94 % of control | [15] 93 % of control | dose: 400.0 mg/kg/injection, schedule: Q01DX001 (ip), vehicle: other 97 % of control | dose: 400.0 mg/kg/injection, schedule: Q04DX003 (ip), vehicle: Klucel (hydroxypropylcellulose) (HPC) 101 % of control

O=C(Nc1ccc(Cl)cc1C(F)(F)F)Oc1ccc(Cl)cc1Br
inactive: dose: 50.0 mg/kg/injection, schedule: Q01DX009 (ip), vehicle: saline with Tween-80 98 % of control | dose: 100.0 mg/kg/injection, schedule: Q01DX009 (ip), vehicle: saline with Tween-80 103 % of control | dose: 200.0 mg/kg/injection, schedule: Q01DX009 (ip), vehicle: saline with Tween-80 103 % of control

O=S1(=O)CCCCO1
inactive: dose: 25.0 mg/kg/injection, schedule: Q01DX009 (ip), vehicle: saline 97 % of control | dose: 25.0 mg/kg/injection, schedule: Q04DX003 (ip), vehicle: saline 102 % of control | dose: 50.0 mg/kg/injection, schedule: Q01DX009 (ip), vehicle: saline 101 % of control | dose: 50.0 mg/kg/injection, schedule: Q04DX003 (ip), vehicle: saline 102 % of control | [1] 89 % of control | [7] 98 % of control
